Results on four substances are retold here after paper doi:10.1101/2025.07.11.664294 (bioRxiv, 2025).

In one assay the test system is U87MG glioblastoma cells. In words: Wound-healing scratch assay. It counts as cell-based, human. To be noted: 50 μM peptide, 24 h, mitomycin C 3 μg/ml; wound closure by ImageJ. The method, then: The U87MG GBM cell line (U-87 MG, ATCC® HTB-14) was cultured in Dulbecco’s Modified Eagle Medium (DMEM) and appropriate growth factors at 37°C in a humidified 5% CO2 atmosphere. Cells were seeded at 40,000 cells per well in 96-well plates and allowed to adhere overnight. Then, mitomycin C (3 μg/ml) was added to inhibit further cell replication, and 50 μM Ctx and its analogs were added. Untreated wells served as a control. Wounds were created by manually scratching the cell monolayer with a 200 μL multi-channel pipette tip, and plates were analyzed at 0 h and 24 h time points using the MetaXpress image acquisition software (Molecular Devices, San Jose, CA). The ImageJ Ver. 1.54f program (NIH (National Institutes of Health) was used for image analysis. Wound closure was quantified using the Wound_Healing_Size_tool_plugin., analyzing the percentage of wound area covered by migrating cells. To determine significance, statistical analysis was performed using appropriate methods (t-test or ANOVA) using GraphPad Prism software, version 10.0.3.

In assay [1] the test system is MMP-2. In words: MMP-2 inhibition assay (Enzo MMP-2 drug discovery kit). It counts as biochemical, human. To be noted: NNGH positive control. How it is done: The MMP-2 inhibition assay was performed using the Enzo Life Sciences MMP-2 drug discovery kit. and the quenched fluorogenic substrate OmniMMP RED. Reference substrate was diluted to a final concentration of 5 μM, while the MMP-2 enzyme was diluted to 58 mU/μL, and the N-Isobutyl-N-(4-methoxyphenylsulfonyl)glycyl hydroxamic acid (NNGH) inhibitor was diluted to a concentration of 1/200 in assay buffer. […] The assay was performed using a black 96-well microplate. Fluorescence was measured at excitation/emission wavelengths of 545/576 nm, with a cutoff at 570 nm using Gen5 microplate reader (BioTeK, Shoreline, WA). Baseline fluorescence was recorded before adding NNGH inhibitor which was used as a positive control for MMP-2 inhibition. Reaction mixtures in the plate were incubated at 37 °C for 10 min, and fluorescence was measured at 10 min intervals for the first 30 min, then at 30 min intervals until 2 h had elapsed. Percentage of inhibition of MMP-2 activity by Ctx and its analogs was calculated as percent of control. Statistical analysis was performed using ANOVA with GraphPad Prism software, version 10.0.3.

The subject of the next assay is recombinant MMP-2. Put plainly: Differential scanning fluorimetry (DSF). It counts as binding, human. To be noted: 1 μM MMP-2, 30 μM (Ctx) or 50 μM (P75 and P76) peptide, PBS pH 7.1, SYPRO-orange, average and SD of n ≥ 3. How it is done: The melting temperatures (Tm) of recombinant MMP-2 and its complexes with peptides were ascertained using BioRad CFX384 Touch real-time PCR (Hercules, CA, USA). The experiments were performed as previously described. The unfolding of the protein was detected using the fluorescent SYPRO-orange dye (Invitrogen, Carlsbad, CA, USA). MMP-2 and prospective ligand peptides were dissolved in 7.1 pH phosphate buffered saline (154 mM NaCl, 5.6 mM Na2PO4, 1.1mM KH2PO4), and the reaction mixture was made to a final concentration of 1 μM of protein, either 30 μM (Ctx) or 50 μM (P75 and P76) of peptide, and 1000x dilution of the SYPRO-Orange dye stock from the manufacturer. Excitation and emission filters of the dye were set at 450–490 nm and 560–580 nm, respectively. The temperature for the reaction was held at 25 °C for 5 min, and then a gradient of 25 °C to 95 °C was applied at a rate of 0.3 °C/min, and the fluorescence was recorded. To determine Tm of the protein, the first derivatives of melting curves were plotted using GraphPad Prism software, version 10.0.3.
In general terms: In DSF a fluorescence change marks the thermal transition of the protein.

A further assay has as its target T1, Neuropilin-1 (NRP-1) (Homo sapiens, UniProt O14786).
T1 construct: containing amino acid residues Phe22-Lys644, with a poly-histidine tag at the C-terminus; purchased ACROBiosystems NR1-H5228
T1 sequence (O14786 22-644 isoform O14786-2): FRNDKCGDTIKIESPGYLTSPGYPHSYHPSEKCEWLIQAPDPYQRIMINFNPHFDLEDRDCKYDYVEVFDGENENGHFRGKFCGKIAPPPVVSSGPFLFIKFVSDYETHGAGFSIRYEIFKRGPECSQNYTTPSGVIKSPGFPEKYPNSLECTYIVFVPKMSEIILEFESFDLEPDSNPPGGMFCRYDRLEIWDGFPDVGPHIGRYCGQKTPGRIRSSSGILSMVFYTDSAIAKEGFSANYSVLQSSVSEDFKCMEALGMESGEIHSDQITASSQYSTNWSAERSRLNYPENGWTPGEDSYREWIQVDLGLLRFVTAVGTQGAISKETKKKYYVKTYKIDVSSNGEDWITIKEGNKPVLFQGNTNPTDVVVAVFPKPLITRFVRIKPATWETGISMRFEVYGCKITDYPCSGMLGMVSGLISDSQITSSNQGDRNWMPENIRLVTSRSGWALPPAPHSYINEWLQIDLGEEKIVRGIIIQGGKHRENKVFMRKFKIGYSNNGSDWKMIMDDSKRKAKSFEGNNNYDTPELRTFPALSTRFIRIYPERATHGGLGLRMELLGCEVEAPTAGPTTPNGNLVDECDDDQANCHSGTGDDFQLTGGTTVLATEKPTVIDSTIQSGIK
Put plainly: Surface plasmon resonance (SPR). It counts as binding. To be noted: NRP-1 immobilized on NTA chip, steady-state affinity model, peptides 500 μM to 3.90 μM, n=3, 4 replicates, read-out: dissociation constant (KD) for NRP-1. The method, then:
(§1) Surface plasmon resonance (SPR) reagents, plates, and the NTA chip were purchased from GE Healthcare Life Sciences, now Cytiva (Marlborough, MA, USA). Measurements were performed using the Biacore 8000 SPR System (Marlborough, MA. USA). The running buffer used for protein immobilization and peptide binding consisted of 20 mM Tris, 150 mM NaCl, […] and 0.0005% Tween-20, adjusted to pH 7.4. MMP-2 and NRP-1 were immobilized onto the NTA chip at 15 nM and 25 nM concentration, respectively. Peptides were injected over the immobilized proteins using two-fold serial dilutions from 500 μM to 3.90 μM. Three experiments with four replicates of each were performed. The SPR response curves generated from the Biacore Insight Evaluation Software were fitted to a steady-state affinity model to obtain an equilibrium dissociation constant (KD) for each peptide — protein interaction.
A general note: In SPR one partner is held on a chip, and binding of the other changes the refractive index at the surface.

Assay [2] concerns MMP-2. In words: Surface plasmon resonance (SPR). It counts as binding, human. To be noted: MMP-2 immobilized on NTA chip; peptides 500 μM to 3.90 μM; pH 7.4. The method, then: as §1
Where [3] appears, read: peptides at 1 μM, 50 μM and 100 μM, quenched fluorogenic substrate, one-way ANOVA.

Consider “Ac-[Cyc(28,33)]Ctx(27-34)-NH2 [Peptide P78]”, for which the “inhibition of U-87MG cell migration” value in the assay on U87MG glioblastoma cells is “about 30%”. The “inhibition of MMP-2 enzymatic activity” value with MMP-2 [1] (setting [3]) is reported as “not statistically significant”.

On to “Ac-[Cys^26,Ser^28,33,Cyc(26,35)]Ctx(24-36)-NH2 [Peptide P76]”, for which the “inhibition of MMP-2 enzymatic activity” value with MMP-2 [1] (setting [3]) is “not statistically significant”. For the same substance, in the assay with recombinant MMP-2, the “Change in melting temperature ΔTm ± SD” value amounted to 0.63 ± 0.36 °C.

One may read the Kd as the constant that tells how readily two partners part at equilibrium. Consider “Ac-[Ser^35,Cyc(28,33)]Ctx(24-36)-NH2 [Peptide P75]”, for which, in the assay on U87MG glioblastoma cells, the “inhibition of U-87MG cell migration” value is “Inhibition of U-87MG cell migration”. Besides, the “inhibition of MMP-2 enzymatic activity” value with MMP-2 [1] (setting [3]) is given as “not statistically significant”. Besides, the “Change in melting temperature ΔTm ± SD” value with recombinant MMP-2 was found to be 0.76 ± 1.56 °C. Further, on Neuropilin-1 (NRP-1), the Kd worked out at 330 ± 146 µM.

As for Chlorotoxin [Ctx, reference compound], in the assay on MMP-2 [2], the “binding to MMP-2 by SPR” value is given as “did not bind”. For the same substance, the “inhibition of MMP-2 enzymatic activity” value in the assay on MMP-2 [1] (Ctx at 1 μM, 5 μM, 10 μM, 15 μM and 20 μM, quenched fluorogenic substrate OmniMMP RED) is reported as “did not inhibit MMP-2 activity”; with MMP-2 [1] (setting [3]) it was “not statistically significant”.
